Laboratory results published in patent publication US9499811B2, “Ligation enhancement” (New England Biolabs, Inc., priority 2011, dated 2016).
Entries after “also recorded” stand apart in the source; their conditions may differ.

Key:
Type in all cases: biochemical
Set-up in all cases: purchased NEB (New England Biolabs), Ipswich, Mass. #M0202
T4 DNA ligase [1] = target: T1, T4 DNA ligase (Enterobacteria phage T4, UniProt P00970); test: Ligase activity titer assay with blunt-ended PhiX174-HaeIII fragments, agarose gel; conditions: 6% 1,2-PrD, two-fold ligase dilution series, 30 min 25 C
T1 sequence (P00970 1-487): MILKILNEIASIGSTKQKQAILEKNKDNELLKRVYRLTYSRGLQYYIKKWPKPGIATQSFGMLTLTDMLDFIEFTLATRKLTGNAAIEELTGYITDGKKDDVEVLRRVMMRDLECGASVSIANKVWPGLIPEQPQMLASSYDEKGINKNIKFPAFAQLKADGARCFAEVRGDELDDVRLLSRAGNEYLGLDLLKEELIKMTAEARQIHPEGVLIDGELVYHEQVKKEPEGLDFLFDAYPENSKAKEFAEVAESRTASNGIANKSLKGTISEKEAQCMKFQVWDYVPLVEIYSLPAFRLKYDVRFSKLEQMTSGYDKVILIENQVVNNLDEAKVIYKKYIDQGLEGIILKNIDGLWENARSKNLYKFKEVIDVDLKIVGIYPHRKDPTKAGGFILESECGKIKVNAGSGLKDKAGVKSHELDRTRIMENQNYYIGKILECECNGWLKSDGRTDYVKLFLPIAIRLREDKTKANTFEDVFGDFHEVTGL
Protocol: The ligase activity in the absence and presence of 6% 1,2-PrD was determined in a two-fold ligase dilution series. The symbol “*” denotes equivalent levels of ligation, showing that ligation efficiency was enhanced 4-fold. The first and last lanes contain DNA markers.
The effectiveness of the ligation enhancer was also established for blunt-ended DNA as follows: 20 μl reactions were set up containing two-fold serial dilutions of 2000 units of T4 DNA ligase, 200 ng PhiX174-HaeIII digest (NEB, Ipswich, Mass., #N3026), and regular ligase buffer with 200 ng phiX174-HaeIII blunt-ended fragments per 20 μl, in the absence and presence of 6% 1,2-PrD. The reactions were incubated for 30 min at room temperature (25° C.) followed by electrophoresis on a 1% agarose gel. 1,2-PrD enhanced T4 DNA ligase activity 4-fold in this titer reaction.

T4 DNA ligase [2] = target: T1, T4 DNA ligase; test: Cloning of a 500 bp amplicon made by Taq DNA polymerase into a T-tailed vector (ligation test system a); conditions: enhancer at 12%; no addition = 1-fold; single-base overhangs
Protocol: All were tested side-by-side using two ligation test systems which were: (a) cloning of a 500 bp amplicon made by Taq DNA polymerase into a T-tailed vector; and (b) recircularization of an AhdI-linearized plasmid. Both ligation test systems used DNA with single-base overhangs.
(§1) The reaction mixtures contained DNA at 50-100 ng and 1,2-PrD at different concentrations. 1 μl of regular concentration (NEB, Ipswich, Mass., #M0202; 400 units) or 1 μl of high concentration T4 DNA ligase (NEB, Ipswich, Mass., #M0202; 2000 units) was then added to a final volume of 21 μl in 1×T4 DNA Ligase Buffer (NEB, Ipwich, Mass., #B0202) or 1× Quick Ligase™ Buffer (NEB, Ipswich, Mass., #B2200).
A standard assay uses 100 ng DNA, 1 μl of T4 DNA ligase, 21 μl 1×T4 DNA ligase buffer and varying amounts of enhancer.
Ligation reactions were incubated for 10 min at room temperature (25° C.) unless otherwise stated, then placed on ice for 2 min. In some experiments the ligase was heat-killed by incubation at 65° C. for 20 min. The ligation reactions were analyzed by 1% agarose gel electrophoresis to identify DNA species and determine the efficiency of […].
A volume of 2 μl from each ligation reaction was incubated with 50 μl of chemically competent (NEB, Ipswich, Mass., #C2987I) or electrocompetent (NEB, Ipswich, Mass., #C2989K) DH5 alpha E. coli cells.
For chemically competent cell transformations, the cell-DNA mixture was incubated on ice for 30 min, heat-shocked at 42° C. for 30 sec, then returned to ice for 5 min. A volume of 950 μl SOC medium (2% vegetable peptone or Tryptone, 0.5% yeast extract, 10 mM NaCl, 2.5 mM KCl, 10 mM MgCl2, 10 mM MgSO4 and 20 mM glucose) was added to the cell-DNA mixture, followed by a one hr 37° C. outgrowth period with agitation. A volume of 25-50 μl of appropriately diluted cells in SOC was spread onto Rich Agar plates (composition per liter: 10 g soy peptone, 5 g yeast extract, 10 g NaCl, 1 g MgCl2-6H2O, 1 g dextrose, 15 grams agar) supplemented with 100 μg/ml ampicillin. Plates were inverted and incubated for 16 hrs at 37° C., followed by quantification of total colony numbers.

T4 DNA ligase [3] = target: T1, T4 DNA ligase; test: Transformants after ligation of AhdI-linearized pUC19 in T4 DNA ligase buffer vs Quick Ligase buffer containing PEG 6000; conditions: 1,2-PrD in regular ligase buffer, chemically competent cells
Protocol: The Y-axis is transformants per 10 pg DNA (transformations w/chemically competent cells.) The X-axis is regular ligase buffer (RLB) with the percentage of added 1,2-PrD given in parentheses. The quick ligase buffer (QLB) has PEG in it to enhance ligation.
as §1
For chemically competent cell transformations, the cell-DNA mixture was incubated on ice for 30 min, heat-shocked at 42° C. for 30 sec, then returned to ice for 5 min. […] Plates were inverted and incubated for 16 hrs at 37° C., followed by quantification of total colony numbers.
Ligations were performed in both buffers using 50 ng of AhdI-linearized pUC19 double-stranded DNA (containing single-base overhangs) following the conditions described in Example 1. A total of 10 pg DNA (40 μl of a 1:20 dilution of the SOC outgrowth) was used per plate and transformants were counted after 16 hrs at 37° C.

SMILES: CC(O)CO (stereo not drawn) [1,2-PrD, 1,2-propanediol]
- Enhancement of T4 DNA ligase activity (ligation efficiency) in titer reaction (T4 DNA ligase [1]): 4 fold
- Cloning Enhancement (T4 DNA ligase [2]): 14-fold
- Transformants per 10 pg DNA compared with PEG-containing Quick Ligase buffer (T4 DNA ligase [3]): enhanced DNA ligation at least as much as PEG containing Quick Ligase; also recorded: achieved the level of transformation expected or greater than in PEG-containing (quick ligase) buffers
